What was measured:
[1] = Concentration required to inhibit 50% activity of prostaglandin synthetase was determined in mouse vas deferens
[2] = Concentration required to inhibit 50% activity of prostaglandin synthetase was determined in vitro in mouse brain microsomes

Row | SMILES | IC50 [1] | IC50 [2]
1 | COc1ccc(C(=O)c2c(C)n(CCN3CCOCC3)c3ccccc23)cc1 [(s-cis) -(4-Methoxy-phenyl)-[2-methyl-1-(2-morpholin-4-yl-ethyl)-1H-indol-3-yl]-methanone] | > 30 µM | –
2 | COc1ccc(C(=O)c2cn(CCN3CCOCC3)c3ccccc23)cc1 | 5 µM | > 30 µM
3 | Cc1c(C(=O)c2cccc3ccccc23)c2ccccc2n1CCN1CCOC(O)C1 (centres undefined) | 0.57 µM | –

— BindingDB's records for doi:10.1021/jm00107a034 (Sterling Research Group, 1991)
